In PubChem BioAssay AID1794817:

Target: Synaptic vesicular amine transporter (Homo sapiens) (UniProt Q05940)
Test: SLC18A2 vesicular uptake inhibitors, dose response (AID 1794817)
Settings: HEK-293 SLC18A2 OE, FFN206 uptake fluorescence

Synaptic vesicular amine transporter (Homo sapiens), sequence (Q05940 whole entry, looked up): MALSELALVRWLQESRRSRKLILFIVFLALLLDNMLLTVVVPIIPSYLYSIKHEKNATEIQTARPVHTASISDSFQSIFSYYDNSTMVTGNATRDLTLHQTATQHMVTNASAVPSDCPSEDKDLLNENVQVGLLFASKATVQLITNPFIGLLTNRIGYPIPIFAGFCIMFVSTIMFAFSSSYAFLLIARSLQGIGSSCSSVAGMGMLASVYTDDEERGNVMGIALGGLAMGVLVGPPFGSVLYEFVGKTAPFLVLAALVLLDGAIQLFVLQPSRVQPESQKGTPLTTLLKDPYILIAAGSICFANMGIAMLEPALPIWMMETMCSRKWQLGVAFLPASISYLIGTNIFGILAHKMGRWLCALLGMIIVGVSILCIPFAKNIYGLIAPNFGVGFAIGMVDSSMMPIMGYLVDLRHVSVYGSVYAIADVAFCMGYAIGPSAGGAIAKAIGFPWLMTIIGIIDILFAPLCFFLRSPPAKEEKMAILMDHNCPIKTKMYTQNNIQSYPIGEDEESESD

| SMILES | IC50 |
| --- | --- |
| CNc1ccc2c(CCN)cc(=O)oc2c1 | 3.56 µM |
| COc1cc2c(cc1OC)C1CC(=O)C(CC(C)C)CN1CC2 (configuration not stated) | 0.0198 µM |
